Where a name gives a salt, the structure may show the parent alone. Read-outs that look alike come from different tables or passages of the source.
Tests used:
[1] = target: human JAK2 (Homo sapiens (Human), UniProt O60674); assay: JAK2 kinase domain Alphascreen enzyme screening; format: biochemical; settings: read-out: JAK2_IC50_nM
Method: (§1) For screening purposes, compounds (in 100% DMSO) were warmed at 37° C. for at least 20 minutes before use. A […] stock was initially made in assay buffer, where the final concentration of DMSO was 0.3%. The stocks were then diluted in 384 well Optiplates (Packard) where the final concentration of the compound was 5 μM.
The kinase domain of human JAK2 was amplified from U937 mRNA using the polymerase chain reaction with the following primers: […]
The JAK2 PCR products were cloned into the pDest20 destination vector (Gibco). The JAK2 plasmid was then transformed into competent DH10Bac cells (Gibco), and the recombinant baculovirus was prepared via Sf9 insect cell transfection.
(§2) Baculovirus preparations from each of the JAK family members were infected into one litre of […] (Spodoptera frugiperda) cells (Invitrogen) grown in SF900II serum free medium (Invitrogen) to a cell density of approximately 2×10^6 cells/ml. Cells were infected with virus at a cell culture to virus stock ratio of 20:1. Cells were harvested and lysed 48 hours post infection. The GST-tagged JAK kinase domains were purified by affinity chromatography on a GSH agarose column (Scientifix).
Alphascreen phosphotyrosine acceptor beads followed by streptavidin donor beads at a concentration of 1/100 in stop buffer were added to each well under subdued light and incubated for 2-3 hours. The Alphascreen plates were read on a Packard Fusion Alpha instrument

[2] = target: human JAK3 (Homo sapiens (Human), UniProt P52333); assay: JAK3 kinase domain Alphascreen enzyme screening; format: biochemical; settings: read-out: JAK3_ IC50_nM
Method: as §1
The kinase domain of human JAK3 was amplified from U937 mRNA using the polymerase chain reaction with the following primers: […]
The JAK3 PCR products were cloned into the pDest20 destination expression vector (Gibco). The JAK3 plasmid was then transformed into competent DH10Bac cells (Gibco), and the recombinant baculovirus was prepared via Sf9 insect cell transfection.
as §2
The compounds were then incubated with substrate in the presence of either […] ATP for 60 or 90 minutes. […] (final concentration 111 μM) or substrate-2 substrate with the sequence biotin-[…] [SEQ ID NO: 16] (final concentration 133 μM). Alphascreen phosphotyrosine acceptor beads followed by streptavidin donor beads at a concentration of 1/100 in stop buffer were added to each well under subdued light and incubated for 2-3 hours. The Alphascreen plates were read on a Packard Fusion Alpha instrument

[3] = tested on: BaF3 TELJAK cells (BafT_J2); assay: Cellular screening, BaF3 TELJAK2 cells (Alamar Blue); format: cell-based; settings: Mus musculus
Method: (§3) For screening purposes, compounds were diluted in 96 well plates at a concentration of 20 μM. Plates were warmed at 37° C. for 30 minutes before the assay was performed.
A TEL/Jak2 fusion was generated by digestion of the TELPCR product with BamH I/Sal I restriction enzymes, digestion of the JAK2 PCR product with Sal I/Not I restriction enzymes, followed by ligation and subcloning of the ligation product into the mammalian expression Vector pTRE 2 (Clontech), which was prepared by digestion with BamH I—Not I restriction enzymes, to give the TEL/Jak2 fusion plasmid pTELJAK2.
(§4) The growth factor dependent myelomonocytic cell line BaF3 bearing the pTET-off plasmid (Clontech) was transfected with either pTELJAK2 or pTELJAK3, and the transfected cells were selected for growth-factor independent cell growth. The BaF3 wild-type cells were cultured in DMEM containing 10% FCS, 10% WEHI 3B conditioned medium. The BaF3 TELJAK cells ([…]) were cultured in DMEM 10% Tet-System Approved FBS (without WEHI 3B conditioned medium).
(§5) Cell suspensions were prepared by harvesting cells from culture (the cells used in this test were in late log phase growth with high viability.) Cells were diluted in the appropriate growth medium, as described above, to 1.1× final concentration (from 50,000 cell/mL to 200,000 cell/mL, depending on cell line).
(§6) Compounds to be tested were added (10 μL, 10× final concentration) to a flat bottomed 96-well plate. The cellular suspension (90 μL per well) was then added, and the plate incubated for 48-72 hr at 37° C., 5% CO2. Alamar Blue 10 μL per well was added and the plates returned to the incubator for a further 4-6 hours.
(§7) Result are given in table 2 where +++ is <1 μM, ++ is <5 μM and + is <20 μM

[4] = tested on: BaF3 wild-type cells; assay: Cellular screening, BaF3 wild-type cells (Alamar Blue); format: cell-based; settings: Mus musculus, 48-72 hr incubation, read-out: BAF3wt_IC50_μM
Method: as §3, §4, §5
as §6, with “hours. The plates were then read at 544 nm.” for “hours.”
as §7

[5] = tested on: CTLL2; assay: Cellular screening, CTLL2 cells (Alamar Blue); format: cell-based; settings: Mus musculus, CTLL-2; 48-72 hr incubation; read-out: CTLL2_IC50_μM
Method: as §3, §5
as §6, with “hours. The plates were then read at 544 nm.” for “hours.”
as §7

[6] = BaF3, 48-72 hr incubation, read-out: BafT_J2_IC50_μM

Chain of human JAK2 (O60674 849-1124): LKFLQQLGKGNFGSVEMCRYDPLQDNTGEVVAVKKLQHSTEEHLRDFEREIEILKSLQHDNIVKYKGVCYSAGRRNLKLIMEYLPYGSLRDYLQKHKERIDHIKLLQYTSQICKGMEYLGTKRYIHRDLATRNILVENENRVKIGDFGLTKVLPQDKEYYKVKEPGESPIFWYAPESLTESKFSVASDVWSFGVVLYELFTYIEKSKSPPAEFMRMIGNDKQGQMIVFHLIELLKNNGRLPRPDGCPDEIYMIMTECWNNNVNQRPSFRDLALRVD
Chain of human JAK3 (P52333 822-1111): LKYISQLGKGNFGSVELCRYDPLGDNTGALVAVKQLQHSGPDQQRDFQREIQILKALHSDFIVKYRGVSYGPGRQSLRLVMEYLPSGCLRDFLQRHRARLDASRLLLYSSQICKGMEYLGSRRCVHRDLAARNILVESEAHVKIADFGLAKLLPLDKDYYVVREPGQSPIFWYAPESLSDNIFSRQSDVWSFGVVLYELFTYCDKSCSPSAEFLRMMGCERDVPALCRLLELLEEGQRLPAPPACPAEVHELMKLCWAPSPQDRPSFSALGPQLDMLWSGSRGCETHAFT

| SMILES | IC50 [1] | IC50 [2] | IC50 [3, 6] | IC50 [4] | IC50 [5] | IC50 ([3]; BaF3, read-out: BafT_J2_IC50_μM) |
| --- | --- | --- | --- | --- | --- | --- |
| O=C(NCC1CCCO1)c1ccc(-c2ccnc(Nc3ccc(N4CCOCC4)cc3)n2)cc1 (centres unmarked) [Compound 21, 4-(2-(4-morpholinophenyl-amino)pyrimidin-4-yl)-N-((tetrahydrofuran-2-yl)methyl)benzamide] | < 0.5 µM | < 0.5 µM | < 20 µM | < 20 µM | < 20 µM | – |
| CS(=O)(=O)N(CC#N)c1ccc(-c2ccnc(Nc3ccc(N4CCOCC4)c(F)c3)n2)cc1 [Compound 81, N-(cyanomethyl)-N-(4-(2-(3-fluoro-4-morpholinophenyl-amino)pyrimidin-4-yl)phenyl)methane-sulfonamide] | < 0.1 µM | > 1 µM | < 1 µM | < 5 µM | < 5 µM | – |
| O=C(NCc1ccncc1)c1ccc(-c2ccnc(Nc3ccc(N4CCOCC4)cc3)n2)cc1 [Compound 17, 4-(2-(4-morpholinophenyl-amino)pyrimidin-4-yl)-N-(pyridin-4-ylmethyl)benzamide] | < 0.5 µM | < 1 µM | < 5 µM | < 20 µM | > 20 µM | – |
| Cc1cnc(Nc2ccc(N3CCC(NS(C)(=O)=O)CC3)cc2)nc1-c1ccc(C(=O)NCC#N)cc1 [Compound 56, N-(cyanomethyl)-4-(5-methyl-2-(4-(4-(methylsulfonamido)piperidin-1-yl)phenylamino)pyrimidin-4-yl)benzamide] | < 0.1 µM | < 0.1 µM | < 1 µM | < 5 µM | < 5 µM | – |
| N#Cc1cc(-c2ccnc(Nc3ccc(N4CCOCC4)cc3)n2)ccc1O [Compound 9, 2-hydroxy-5-(2-(4-morpholinophenyl-amino)pyrimidin-4-yl)benzonitrile] | < 0.5 µM | < 0.5 µM | < 5 µM | < 5 µM | < 5 µM | – |
| CCN1CCC(Oc2ccc(Nc3nccc(-c4ccc(C(=O)NCC#N)cc4)n3)cc2)CC1 [Compound 80, N-(cyanomethyl)-4-(2-(4-(1-ethylpiperidin-4-yloxy)phenylamino)pyrimidin-4-yl)benzamide] | < 0.1 µM | < 0.5 µM | < 1 µM | < 5 µM | < 5 µM | – |
| COc1cc(-c2ccnc(Nc3ccc(N4CCOCC4)cc3)n2)ccc1C#N [Compound 16, 2-methoxy-4-(2-(4-morpholinophenyl-amino)pyrimidin-4-yl)benzonitrile] | > 1 µM | > 1 µM | > 20 µM | > 20 µM | > 20 µM | – |
| C=CCOCc1cc(Nc2nccc(-c3ccc(C(=O)NCC#N)cc3)n2)ccc1N1CCOCC1 [Compound 79] | < 0.1 µM | < 0.5 µM | < 1 µM | < 1 µM | < 5 µM | – |
| CS(=O)(=O)N(CC#N)c1ccc(-c2ccnc(Nc3ccc(N4CCOCC4)c(C#N)c3)n2)cc1 [Compound 82, N-(4-(2-(3-cyano-4-morpholinophenyl-amino)pyrimidin-4-yl)phenyl)-N-(cyanomethyl) methanesulfonamide] | < 0.1 µM | > 1 µM | < 1 µM | < 5 µM | < 5 µM | – |
| N#CCNC(=O)c1ccc(-c2ccnc(Nc3ccc(OC4CCNCC4)cc3)n2)cc1 [Compound 59, N-(cyanomethyl)-4-(2-(4-(piperidin-4-yloxy)phenylamino)pyrimidin-4-yl)benzamide] | < 0.1 µM | < 0.5 µM | < 5 µM | < 1 µM | < 5 µM | – |
| N#CCNC(=O)c1ccc(-c2nc(Nc3ccc(N4CCOCC4)cc3)ncc2F)cc1 [Compound 93, N-(cyanomethyl)-4-(5-fluoro-2-(4-morpholinophenyl-amino)pyrimidin-4-yl)benzamide] | < 0.1 µM | < 0.5 µM | – | < 1 µM | < 1 µM | < 1 µM |
| C#CCN(c1ccc(-c2ccnc(Nc3ccc(N4CCOCC4)cc3)n2)cc1)S(C)(=O)=O [Compound 57, N-(4-(2-(4-morpholinophenyl-amino)pyrimidin-4-yl)phenyl)-N-(prop-2-ynyl)methane-sulfonamide tosylate] | < 0.1 µM | < 1 µM | < 5 µM | < 5 µM | < 5 µM | – |
| N#CCNC(=O)CNC(=O)c1ccc(-c2ccnc(Nc3ccc(N4CCOCC4)cc3)n2)cc1 [Compound 34, N-(2-(cyanomethylamino)-2-oxoethyl)-4-(2-(4-morpholinophenyl-amino)pyrimidin-4-yl)benzamide] | < 0.1 µM | < 0.5 µM | < 20 µM | < 5 µM | < 5 µM | – |

Now from value to compound, other results behind:

| IC50 [1] | IC50 [2] | IC50 [3, 6] | IC50 [4] | SMILES | IC50 [5] | IC50 ([3]; BaF3, read-out: BafT_J2_IC50_μM) |
| --- | --- | --- | --- | --- | --- | --- |
| < 0.1 µM | < 1 µM | < 5 µM | < 5 µM | N#CCC(=O)Nc1ccc(-c2ccnc(Nc3ccc(N4CCOCC4)cc3)n2)cc1C(F)(F)F [Compound 76, 2-cyano-N-(4-(2-(4-morpholinophenyl-amino)pyrimidin-4-yl)-2-(trifluoromethyl)phenyl)acetamide] | < 5 µM | – |
| < 0.1 µM | < 1 µM | < 5 µM | < 5 µM | CCCOCc1cccc(Nc2nccc(-c3ccc(C(=O)NCC#N)cc3)n2)c1 [Compound 75, N-(cyanomethyl)-4-(2-(3-(proproxymethyl)phenylamino)pyrimidin-4-yl)benzamide] | < 5 µM | – |
| < 0.1 µM | < 0.5 µM | < 5 µM | < 5 µM | CS(=O)(=O)N(CC#N)c1ccc(-c2ccnc(Nc3ccc(N4CCOCC4)cc3)n2)cc1 [Compound 31, N-(cyanomethyl)-N-(4-(2-(4-morpholinophenyl-amino)pyrimidin-4-yl)phenyl)methane-sulfonamide] | < 5 µM | – |
| < 0.1 µM | < 0.5 µM | < 5 µM | < 5 µM | N#CCNC(=O)c1ccc(-c2ccnc(Nc3ccc(N4CCS(=O)(=O)CC4)cc3)n2)cc1 [Compound 89, N-(cyanomethyl)-4-(2-{[4-(1,1-dioxo-1λ^6,4-thiomorpholin-4-yl)phenyl]amino}pyrimidin-4-yl)benzamide] | < 5 µM | – |
| < 0.1 µM | < 0.1 µM | < 1 µM | < 1 µM | COc1cc(Nc2nccc(-c3ccc(C(=O)NCC#N)cc3)n2)cc(OC)c1OC [Compound 20, N-(cyanomethyl)-4-(2-(3,4,5-trimethoxyphenyl-amino)pyrimidin-4-yl)benzamide] | < 5 µM | – |
| < 0.1 µM | < 0.1 µM | < 1 µM | < 5 µM | CC(=O)N1CCN(c2ccc(Nc3nccc(-c4ccc(C(=O)NCC#N)cc4)n3)cc2)CC1 [Compound 55, 4-(2-(4-(4-acetylpiperazin-1-yl)phenylamino)pyrimidin-4-yl)-N-(cyanomethyl) benzamide] | < 5 µM | – |

Reference: patent US12570614B2, “Phenyl amino pyrimidine compounds and uses thereof” (GlaxoSmithKline LLC, priority 2007, dated 2026)
